# Laboratory results as given in patent publication US6767890B1, “Peptides having anti-cancer and anti-inflammatory activity” (priority 1998, dated 2004).
# Where “and” joins values, the source holds several entries; their conditions need not be identical. Equal entries are not always repeated.
# Columns and labels:
# [1] = system: Sarcoma 180 tumor; test: Anti-Cancer Activity Against Mouse Tumor Sarcoma 180; format: in vivo; conditions: 10 mg/kg, listed as natural peptide
# Method: This model has been used extensively as indicative of neovascularization in mammals inasmuch as the tumor so implanted is quickly vascularizing.
# Experimental Design: All mice were weighed at test initiation and test termination. The animals were divided into three groups. The Sarcoma 180 tumor was made up from a passage mouse to furnish […] per 0.1 mL inoculum. The cells were injected into the left leg hamstring muscle mass. The was delivered to the mice by I.P. injections, or gavage on days 1-5.
# At the termination of the experiments, the mice were weighed and the left rear leg was amputated at the thigh. The skin was removed from the leg to expose the site at which the tumor was located. […].
# [2] = system: Adjuvant Induced Arthritis; test: Adjuvant Induced Arthritis Model; format: in vivo; conditions: rat, 20 mg per KG body weight orally once per day for 14 days, Day 14
# Method: Adjuvant Induced Arthritis Model: Male Sprague-Dawley rats (160-180 g) were sensitized by injecting Fruend's Complete Adjuvant (0.5% suspension of killed mycobacterium tuberculosis (H37RA, Difco in mineral oil)). 0.05 ml was administered intradermally at a plantar site on the right hind leg of each rat. The test materials were given orally (by gavage) in 0.5% methylcelluose, at a dose level of 20 milligrams per kilo body weight, and given once per day for 14 days. The administration was started the day after sensitization. The left hind paw was measured just before sensitization and on Day 14, and the plantar edema inhibitory rate and the body weight gain rate were determined in comparison with the nonsensitized rat groups. The paw weights for each group in each test run were averaged. Activity was calculated as follows: [formula]
# The Anti-inflammatory response is the difference in the mean foot volume. […] FIG. 4.
# [3] = target: T1, Histamine H3 (Rattus norvegicus, UniProt Q9QYN8); test: Histamine H3 radioligand binding; conditions: 10.0 μM; specific binding of [3H]NAMH; negative = stimulation
# T1 construct: rat brain; from tissue; host or cells: rat brain
# Method: (§1) The peptide was further screened in vitro in a variety of enzyme and biochemical assays. Methods employed were adapted from the scientific literature to maximize reliability and reproducibility. The primary literature reference for each assay is listed in Table 11 opposite the results for each assay.
# (§2) Results presented in Table 10, “Results,” are the average of duplicate determinations, unless otherwise noted.
# (§3) Reference compounds were tested concurrently at 5 concentrations as an integral part of each assay to ensure the validity of the results obtained.
# Radioligand binding assays were performed under conditions described in Table 8, “Experimental Conditions.” Radioligands employed in this study are given in Table 8, and commercial sources and catalog numbers of the radioligands are provided in Table 7, “Material Sources.” Unlabeled, blocking ligands employed this study are listed in Table 8, “Experimenal Conditions,” along with the commercial sources and catalog number of the unlabeled ligand. The concurrent reference compound (control) employed in each assay is listed in Table 9, “Reference Compound Data,” along with the commercial supplier and catalog number of the compound. […]
# Maximum total binding and nonspecific binding were determined each time each assay was run. […]
# Where inhibition constants (Ki) are presented, the Ki values were calculated using the equation of Cheng and Prusoff (Cheng, Y., Prusoff, W. H., Biochem. Pharmacol. […], 1973) using the observed IC50 of the tested compound, the concentration of radioligand employed in the assay, and the historical values for the Kd of the ligand (obtained experimentally). Where presented, the Hill Coefficient (nH), defining the scope of the competitive binding curve, was calculated using GraphPad Prism. […] Where IC50, Ki, and/or Hill Slope data is presented without Standard Error of the Mean (SEM), data are insufficient to be quantitative, and the values presented (Ki, IC50, nH) should be interpreted with caution. […]
# [4] = system: vasculature of chick embryos; test: CAM assay; format: in vivo
# Method: Method: The method used was that described in D. Knighton, D. Ausprunk, D. Tapper, and J. Folkman, “Avascular and Vascular Phases of Tumour Growth in the Chick Embryo.” J. Cancer 35:347-355 (1977) Procedure: The test compounds were suspended in sterile saline and then applied to methylcellulose discs, ¼ inch diameter with a micropipette and allowed to air dry at a concentration of 10 μg/disc.
# The test was graded as follows:
# The following scores are based on the observation of at least 10 chick embryos.
# [5] = target: T2, 5-Lipoxygenase (Rattus norvegicus, UniProt P12527); test: 5-Lipoxygenase enzyme assay; format: biochemical; conditions: 30.0 μM; average of duplicate; negative = stimulation
# T2 construct: rat RBL-1 cells; endogenous in cells; host or cells: RBL-1 cells
# Method: Unless otherwise indicated, the peptide was tested in duplicate at the concentrations indicated for each assay.
# [6] = system: T3, Ca++/Calmodulin Dep. PK II; test: Ca++/Calmodulin Dep. PK II enzyme assay; format: biochemical, rat; conditions: 100.0 μM; average of duplicate; negative = stimulation
# T3 construct: other: 100.0 μM; average of duplicate; negative = stimulation
# Method: as §1, §2, §3
# Enzyme assays were performed under conditions described in Table 8, “Experimental Conditions.”. The commercial suppliers and catalog numbers of substrates employed in this study are given in Table 7, “Material Sources.” The name, commercial source, and catalog numbers of concurrent reference compounds (controls) employed in this study are given in Table 9, “Reference Compound Data.” The reaction catalyzed by each enzyme is listed in Table 8, “Experimental Conditions.”
# Biochemical assay results are presented in Table 10, as the percent inhibition of specific binding or activity, and unless noted are the average of duplicate tubes tested at each concentration.
# [7] = system: galanin receptor; test: Galanin Agonism/Antagonism, rat ileum; format: cell-based; conditions: Peptide 30 μM
# Method: For in vivo assay, distilled water and saline was used as vehicle in oral and intraperitoneal administration, respectively. Dosing volume was 20 ml/kg for mice or 10 ml/kg for rats.
# A segment of ileum obtained from Wistar derived male or female rats weighing 275±25 gms and sacrificed by CO2 overexposure was used. The tissue was placed under 1 g tension in a 10 ml bath containing Kreb's solution pH 7.4 at 32° C. Test substance (30 μM)-induced contraction 50 percent or more (≧50%) within 5 minutes, relative to control 0.1 μM galanin response, indicated possible galanin receptor agonist activity. Atha test substance concentration where no significant agonist activity was seen, ability to reduce the galanin-induced contractile response […] or more (≧50%) indicated galanin receptor antagonist activity. Each concentration was tested on two separate preparations.
# [8] = system: TNF-α; test: TNF-α radioligand binding; parameters: species or system human; conditions: 10.0 μM; specific binding of [125I]TNF-alpha; negative = stimulation
# Method: The peptide was further screened in vitro in a variety of enzyme and biochemical assays. Methods employed were adapted from the scientific literature to maximize reliability and reproducibility.
# as §2
# Radioligand binding assays were performed under conditions described in Table 8, “Experimental Conditions.” Radioligands employed in this study are given in Table 8, and commercial sources and catalog numbers of the radioligands are provided in Table 7, “Material Sources.” Unlabeled, blocking ligands employed this study are listed in Table 8, “Experimenal Conditions,” along with the commercial sources and catalog number of the unlabeled ligand. The concurrent reference compound (control) employed in each assay is listed in Table 9, “Reference Compound Data,” along with the commercial supplier and catalog number of the compound. Where receptors have been obtained through recombinant expression techniques, the species from which the cDNA was obtained, and the type of expression system employed (mammalian, insect, bacterial) is also given Table 7.
# Maximum total binding and nonspecific binding were determined each time each assay was run. Nonspecific binding was defined as the proportion of total binding not displaced by unlabeled ligand specific for the receptor. […]
# T2 sequence (P12527 whole entry): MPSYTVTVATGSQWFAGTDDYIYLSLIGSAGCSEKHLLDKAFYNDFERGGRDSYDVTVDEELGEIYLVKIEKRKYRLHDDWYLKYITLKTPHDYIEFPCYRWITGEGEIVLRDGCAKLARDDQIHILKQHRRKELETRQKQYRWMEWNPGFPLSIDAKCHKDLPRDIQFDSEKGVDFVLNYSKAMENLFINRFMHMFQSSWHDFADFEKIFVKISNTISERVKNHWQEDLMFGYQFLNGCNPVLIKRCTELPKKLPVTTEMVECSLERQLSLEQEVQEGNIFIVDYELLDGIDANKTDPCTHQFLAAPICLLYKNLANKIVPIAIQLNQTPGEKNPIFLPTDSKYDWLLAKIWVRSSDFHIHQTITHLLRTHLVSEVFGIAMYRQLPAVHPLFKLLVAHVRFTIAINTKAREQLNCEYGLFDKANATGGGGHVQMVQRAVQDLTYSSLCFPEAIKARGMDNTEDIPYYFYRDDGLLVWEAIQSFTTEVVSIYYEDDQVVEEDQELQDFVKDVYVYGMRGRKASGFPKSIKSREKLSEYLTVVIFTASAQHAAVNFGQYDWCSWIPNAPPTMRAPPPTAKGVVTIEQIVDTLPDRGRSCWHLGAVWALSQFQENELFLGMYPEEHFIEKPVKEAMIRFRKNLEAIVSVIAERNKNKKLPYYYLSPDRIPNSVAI
# T1 sequence (Q9QYN8 whole entry): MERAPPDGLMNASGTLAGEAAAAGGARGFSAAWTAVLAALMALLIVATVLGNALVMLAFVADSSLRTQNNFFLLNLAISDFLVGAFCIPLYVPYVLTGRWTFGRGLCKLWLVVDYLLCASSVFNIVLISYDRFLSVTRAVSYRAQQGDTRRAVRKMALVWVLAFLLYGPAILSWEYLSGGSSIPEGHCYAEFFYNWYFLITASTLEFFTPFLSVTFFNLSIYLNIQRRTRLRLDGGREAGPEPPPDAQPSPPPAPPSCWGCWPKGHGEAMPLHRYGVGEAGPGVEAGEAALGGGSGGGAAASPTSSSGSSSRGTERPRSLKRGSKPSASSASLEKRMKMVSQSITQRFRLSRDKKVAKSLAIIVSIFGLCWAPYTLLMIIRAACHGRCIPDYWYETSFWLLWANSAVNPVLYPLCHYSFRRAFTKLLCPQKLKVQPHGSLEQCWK
substance,measurement,setting,value
LEU-PRO-PRO-SER-ARG [Peptide],% tumor inhibition,"[1]; I.P. injections or gavage on days 1-5, 6 mice",99.0%
same,"Mean tumor wt. gain, gm","[1]; net tumor weight, I.P. injections or gavage on days 1-5, 6 mice",0.03 gm
same,anti-inflammatory response (percent inhibition),[2],116.3%
same,% Inhibition,[3],−13%
same,CAM assay antiangiogenesis score,"[4]; 10 μg/disc on methylcellulose discs, at least 10 chick embryos, graded 0 to +4",3.6
same,inhibited proliferation of vacularization,"[4]; CAM assay, 10 μg/disc",approximately 95%
same,% Inhibition,[5],0%
same,% Inhibition,[6],12%
same,"Antagonism, Ave.",[7]; average of two preparations,12%
same,"Agonism, Ave.","[7]; average of two preparations, Galanin 0.1 μM",0%
same,Agonism,"[7]; individual preparation, contraction within 5 minutes relative to 0.1 μM galanin response, Galanin 0.1 μM",0%
same,Antagonism,"[7]; individual preparation, reduction of 0.1 μM galanin-induced contractile response",24% and 0%
same,% Inhibition,[8],−11%
